In test [1] the test system is female spinal cord-transected rats with bilaterally transected hypogastric nerve and pudendal nerve. In words: Reflex urethral closure response induced by increased intravesical pressure, with hypogastric and pudendal nerves bilaterally transected. The conditions noted are these: for urethral closure response (cmH2O) after drug administration: 10 min after administration; for urethral closure response (cmH2O) after drug administration / urethral closure response (cmH2O) before drug administration: intravesical pressure raised to 50 cmH2O, mean ± SEM, n = 5; for action on the urethral closure response induced by the increased intravesical pressure (in words): i.v., female spinal cord-transected rats with hypogastric and pudendal nerves bilaterally transected.
Protocol: Female SD rats (body weight 200-310 g) were anesthetized with urethane (Wako Pure Chemical Industries, Ltd.), and the spinal cord was transected at T8-9 level to eliminate the micturition reflex. During the operation, halothane (Takeda Pharmaceutical Company Limited) anesthesia was added when necessary. After abdominal section, bladder neck was ligated with a suture thread, and then the hypogastric nerve and pudendal nerve were bilaterally transected. A catheter (PE-90, Clay Adams) was placed in the bladder, and the other end of the bladder catheter was connected to a pressure transducer and a water reservoir (60 ml syringe) of saline via a three-way cock. A microchip transducer catheter (SPR-524, Millar Instruments Inc.) was inserted toward the bladder from the urethral opening, and adjusted using a scale on the catheter surface so that the transducer part is positioned in the urinary tract at 10.0-15.0 mm from the urethral opening.
The changes in the topical pressure within the urinary tract (hereinafter conveniently indicated as urethral internal pressure) as measured by the microchip transducer was transmitted to a computer via an amplifier (blood pressure amplification unit AP-641G; NIHON KOHDEN) and an analog-to-digital converter (MP-100; biopack; sampled at 500 Hz), and recorded on a hard disc. […] The reaction of the urinary tract induced by an increased intravesical pressure was measured 3 times, and the average of the last 2 measures was taken as the value before drug administration. The evaluation item was reflex urethral closure response, and the recorded values were subjected to smoothing process at 500 points to calculate an average urethral internal pressure per 1 sec, after which the value immediately before increase of the intravesical pressure was subtracted from the maximum value on increase of the intravesical pressure and taken as the urethral closure response. […] The drugs were all dissolved in N,N-dimethylformamide/polyethylene glycol 400 (1:1) and administered intravenously at a dose of 0.5 ml/kg.

The target in test [2] is serotonin 5-HT2C receptor (isoform type VSV, stably expressing CHO cell) (Homo sapiens, UniProt P28335, I156V/I160V/N158S). In words: cell-based. The conditions noted are these: for Emax: CHO, read-out: ratio to maximum response by 5-HT, read-out: ratio to maximum response by 5-HT (1 μM).
[3] abbreviates: baseline of the 1 mg/kg i.v. group.

Each structure is given as a SMILES string. Structures can show the parent of a compound that is named as a salt.

Chain of serotonin 5-HT2C receptor (isoform type VSV, stably expressing CHO cell) (P28335 33-458 I156V/N158S/I160V limits assumed): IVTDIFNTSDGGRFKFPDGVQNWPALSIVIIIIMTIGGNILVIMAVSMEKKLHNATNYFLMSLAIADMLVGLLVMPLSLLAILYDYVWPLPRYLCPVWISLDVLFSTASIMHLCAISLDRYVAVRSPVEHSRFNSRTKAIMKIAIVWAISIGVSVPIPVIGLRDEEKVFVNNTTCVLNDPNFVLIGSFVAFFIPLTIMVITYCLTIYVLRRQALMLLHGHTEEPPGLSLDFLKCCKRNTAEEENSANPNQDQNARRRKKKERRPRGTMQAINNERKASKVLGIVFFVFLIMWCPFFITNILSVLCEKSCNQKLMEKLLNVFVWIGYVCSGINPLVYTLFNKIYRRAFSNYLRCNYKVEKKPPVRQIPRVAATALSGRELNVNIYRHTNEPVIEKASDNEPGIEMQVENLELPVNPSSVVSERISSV

With `C[C@H]1CNCCc2ccc(Cl)cc21.Cl` [APD-356], in test [1] (1 mg/kg i.v.), the “urethral closure response (cmH2O) after drug administration” value is on record as 8.6 ± 2.7 cmH2O. The “urethral closure response (cmH2O) before drug administration” value in test [1] (setting [3]) is 5.3 ± 1.7 cmH2O. For the same molecule, the “action on the urethral closure response induced by the increased intravesical pressure (in words)” value in test [1] was “enhanced the urethral closure response”. For `CC(C)(C)OC(=O)N1CCN(c2ccc3c(n2)OCCNC3)CC1` [Example 30, tert-butyl 4-(2,3,4,5-tetrahydropyrido[3,2-f][1,4]oxazepin-8-yl)piperazine-1-carboxylate], the Emax in test [2] is 99.4%.

Regarding `c1cc2c(nc1N1CCCCC1)OCCNC2` [Example 40, 8-piperidin-1-yl-2,3,4,5-tetrahydropyrido[3,2-f][1,4]oxazepine], the Emax in test [2] stood at 80.8%.

Regarding `c1cc2c(nc1N1CCOCC1)OCCNC2` [Example 41, 8-morpholin-4-yl-2,3,4,5-tetrahydropyrido[3,2-f][1,4]oxazepine], the “ratio to maximum response by 5-HT (1 μM)” value in test [2] turned out to be 83.0%. For the same molecule, in test [1] (1 mg/kg i.v.), the “urethral closure response (cmH2O) after drug administration” value turned out to be 7.5 ± 1.6 cmH2O. In addition, the “urethral closure response (cmH2O) before drug administration” value in test [1] (setting [3]) is 4.6 ± 0.8 cmH2O. Further, in test [1], the “action on the urethral closure response induced by the increased intravesical pressure (in words)” value was “enhanced the urethral closure response”. Turning to `c1cc2c(nc1N1CCCC1)OCCNC2` [Example 43, 8-pyrrolidin-1-yl-2,3,4,5-tetrahydropyrido[3,2-f][1,4]oxazepine bis(trifluoroacetate)], the Emax in test [2] was 97%. Same read-out and setting: with `CCN(CC)c1ccc2c(n1)OCCNC2` [Example 44, N,N-diethyl-2,3,4,5-tetrahydropyrido[3,2-f][1,4]oxazepin-8-amine bis(trifluoroacetate)] the figure was 95.1%; with `c1cc2c(nc1N1CCCCCC1)OCCNC2` [Example 46, 8-azepan-1-yl-2,3,4,5-tetrahydropyrido[3,2-f][1,4]oxazepine bis(trifluoroacetate)], 100%. `CC1CCCCN1c1ccc2c(n1)OCCNC2` (centres unmarked) [Example 49, 8-(2-methylpiperidin-1-yl)-2,3,4,5-tetrahydropyrido[3,2-f][1,4]oxazepine bis(trifluoroacetate)]: the Emax in test [2] came to 89.5%. Still for that read-out and setting: the figure for `c1ccc(CCN2CCN(c3ccc4c(n3)OCCNC4)CC2)cc1` [Example 58, 8-[4-(2-phenylethyl)piperazin-1-yl]-2,3,4,5-tetrahydropyrido[3,2-f][1,4]oxazepine tris(trifluoroacetate)] is 87.1%; for `c1ccc(CCCCN2CCN(c3ccc4c(n3)OCCNC4)CC2)cc1` [Example 67, 8-[4-(4-phenylbutyl)piperazin-1-yl]-2,3,4,5-tetrahydropyrido[3,2-f][1,4]oxazepine tris(trifluoroacetate)] it is 124%.

With `Clc1ccc(-c2ccc3c(n2)OCCNC3)cc1` [Example 79, 8-(4-chlorophenyl)-2,3,4,5-tetrahydropyrido[3,2-f][1,4]oxazepine], in test [2], the Emax amounted to 91.1%.

For `Fc1ccc(-c2ccc3c(n2)OCCNC3)cc1` [Example 81, 8-(4-fluorophenyl)-2,3,4,5-tetrahydropyrido[3,2-f][1,4]oxazepine bis(trifluoroacetate)], the Emax in test [2] was 92.1%. With `CSc1ccc(-c2ccc3c(n2)OCCNC3)cc1` [Example 96, 8-[4-(methylthio)phenyl]-2,3,4,5-tetrahydropyrido[3,2-f][1,4]oxazepine bis(trifluoroacetate)], the Emax in test [2] amounted to 90.3%. In the case of `COC(=O)c1ccc(-c2ccc3c(n2)OCCNC3)cc1` [Example 102, methyl 4-(2,3,4,5-tetrahydropyrido[3,2-f][1,4]oxazepin-8-yl)benzoate bis(trifluoroacetate)], the Emax in test [2] stood at 91.3%.

For `FC(F)(F)Oc1ccc(-c2ccc3c(n2)OCCNC3)cc1` [Example 104, 8-[4-(trifluoromethoxy)phenyl]-2,3,4,5-tetrahydropyrido[3,2-f][1,4]oxazepine bis(trifluoroacetate)], in test [2], the Emax came out at 94.6%. As for `c1cc(-c2ccc3c(n2)OCCNC3)co1` [Example 112, 8-(3-furyl)-2,3,4,5-tetrahydropyrido[3,2-f][1,4]oxazepine bis(trifluoroacetate)], in test [2], the Emax came out at 93%. The same measure, in the same setting: with `CC(C)(C)OC(=O)N1CCN(c2nc3c(cc2F)CNCCO3)CC1` [Example 122, tert-butyl 4-(7-fluoro-2,3,4,5-tetrahydropyrido[3,2-f][1,4]oxazepin-8-yl)piperazine-1-carboxylate] the figure was 110%; with `CC1CNCc2ccc(N3CCN(C(=O)OC(C)(C)C)CC3)nc2O1` (centres unmarked) [Example 126, tert-butyl 4-(2-methyl-2,3,4,5-tetrahydropyrido[3,2-f][1,4]oxazepin-8-yl)piperazine-1-carboxylate], 109%. The same measure, in the same setting: the figure for `CC1CNCc2ccc(N3CCOCC3)nc2O1` (centres unmarked) [Example 128, 2-methyl-8-morpholin-4-yl-2,3,4,5-tetrahydropyrido[3,2-f][1,4]oxazepine] is 107%; for `CC1CNCc2ccc(N3CCCCC3)nc2O1` (centres unmarked) [Example 129, 2-methyl-8-piperidin-1-yl-2,3,4,5-tetrahydropyrido[3,2-f][1,4]oxazepine] it is 111%.

For the molecule `C[C@@H]1CNCc2ccc(N3CCOCC3)nc2O1` [Example 130, (+)-2-methyl-8-morpholin-4-yl-2,3,4,5-tetrahydropyrido[3,2-f][1,4]oxazepine], the Emax in test [2] turned out to be 105%.

`C[C@H]1CNCc2ccc(N3CCOCC3)nc2O1` [Example 131, (−)-2-methyl-8-morpholin-4-yl-2,3,4,5-tetrahydropyrido[3,2-f][1,4]oxazepine]: the Emax in test [2] stood at 94.2%. In the case of `c1cc2c(nc1N1CCOCC1)OCCNC2` [Example 147, 8-morpholin-4-yl-2,3,4,5-tetrahydropyrido[3,2-f][1,4]oxazepine monohydrochloride], the Emax in test [2] stood at 93.9%. As to `c1cc2c(nc1N1CCOCC1)OCCNC2` [Example 148, 8-morpholin-4-yl-2,3,4,5-tetrahydropyrido[3,2-f][1,4]oxazepine monohydrobromide], in test [2] (monohydrobromide), the “ratio to maximum response by 5-HT (1 μM)” value is 93.5%. As for `CC1CCC(C)N1c1ccc2c(n1)OCCNC2` (centres unmarked) [Example 155, 8-(2,5-dimethylpyrrolidin-1-yl)-2,3,4,5-tetrahydropyrido[3,2-f][1,4]oxazepine], the Emax in test [2] is 85.4%.

As for `Br.CC1CCC(C)N1c1ccc2c(n1)OCCNC2` (centres unmarked) [Example 156, 8-(2,5-dimethylpyrrolidin-1-yl)-2,3,4,5-tetrahydropyrido[3,2-f][1,4]oxazepine monohydrobromide], the “ratio to maximum response by 5-HT (1 μM)” value in test [2] worked out at 93.4%. Take `CCC(C)N(C)c1ccc2c(n1)OCCNC2` (centres unmarked) [Example 171, N-(sec-butyl)-N-methyl-2,3,4,5-tetrahydropyrido[3,2-f][1,4]oxazepin-8-amine monohydrobromide]: the Emax in test [2] was 99.6%. Regarding `CCC(C)N(C)c1ccc2c(n1)OCCNC2` (centres unmarked) [Example 172, N-(sec-butyl)-N-methyl-2,3,4,5-tetrahydropyrido[3,2-f][1,4]oxazepin-8-amine monohydrochloride], the “ratio to maximum response by 5-HT (1 μM)” value in test [2] (monohydrochloride) is listed as 95.3%.

For the molecule `CCC(C)N(C)c1ccc2c(n1)OCCNC2` (centres unmarked) [Example 173, N-(sec-butyl)-N-methyl-2,3,4,5-tetrahydropyrido[3,2-f][1,4]oxazepin-8-amine dihydrochloride], in test [2] (dihydrochloride), the “ratio to maximum response by 5-HT (1 μM)” value stood at 95.1%.

Turning to `CC(C)N(C)c1ccc2c(n1)OCCNC2` [Example 177, N-isopropyl-N-methyl-2,3,4,5-tetrahydropyrido[3,2-f][1,4]oxazepin-8-amine], the Emax in test [2] came to 91.5%. `CC(C)N(C)c1ccc2c(n1)OCCNC2` [Example 178, N-isopropyl-N-methyl-2,3,4,5-tetrahydropyrido[3,2-f][1,4]oxazepin-8-amine monohydrobromide]: the “ratio to maximum response by 5-HT (1 μM)” value in test [2] (monohydrobromide) is recorded as 94.6%.

With `CC(C)c1ccc2c(n1)OCCNC2` [Example 205, 8-isopropyl-2,3,4,5-tetrahydropyrido[3,2-f][1,4]oxazepine dihydrochloride], the Emax in test [2] was determined as 93.5%. On the same count and under the same terms, the figure for `c1cc2c(nc1C1CC1)OCCNC2` [Example 210, 8-cyclopropyl-2,3,4,5-tetrahydropyrido[3,2-f][1,4]oxazepine dihydrochloride] is 108%; for `c1cc2c(nc1C1CCC1)OCCNC2` [Example 211, 8-cyclobutyl-2,3,4,5-tetrahydropyrido[3,2-f][1,4]oxazepine dihydrochloride] it is 98%.

As to `c1cc2c(nc1C1CCCC1)OCCNC2` [Example 212, 8-cyclopentyl-2,3,4,5-tetrahydropyrido[3,2-f][1,4]oxazepine dihydrochloride], the Emax in test [2] is 91.9%. On to `c1cc2c(nc1C1CCCC1)OCCNC2` [Example 213, 8-cyclopentyl-2,3,4,5-tetrahydropyrido[3,2-f][1,4]oxazepine], for which the “ratio to maximum response by 5-HT (1 μM)” value in test [2] is listed as 96.6%. `c1cc2c3c(c1)[C@H]1CCC[C@H]1N3CCNC2` [WAY-163909]: the “urethral closure response (cmH2O) after drug administration” value in test [1] (3 mg/kg i.v.) stood at 10.2 ± 1.6 cmH2O. Also, the “urethral closure response (cmH2O) before drug administration” value in test [1] (baseline of the 3 mg/kg i.v. group) is 4.4 ± 0.8 cmH2O. The “action on the urethral closure response induced by the increased intravesical pressure (in words)” value in test [1] was “enhanced the urethral closure response”.
